Assay results: ChEMBL document CHEMBL5376000, “One-Pot Synthesis of Cereblon Proteolysis Targeting Chimeras via Photoinduced C(sp2)-C(sp3) Cross Coupling and Amide Formation for Proteolysis Targeting Chimera Library Synthesis” (J Med Chem, 2023)
Converted amounts (≈) assume the structure as drawn.

Assays:
[1] = Aqueous solubility of the compound at 125 ug/ml measured after 24 hrs at pH 4.5 by LC-UV analysis; assay type: physicochemical; conditions: for solubility: buffer, pH 4.5, 24 h, dose 125 µg/ml; for solubility at 24 h: aqueous medium, pH 4.5, dose 125 µg/ml
[2] = Aqueous solubility of the compound at 125 ug/ml measured after 24 hrs at pH 6.8 by LC-UV analysis; assay type: physicochemical; conditions: for solubility: buffer, pH 6.8, 24 h, dose 125 µg/ml; for solubility at 24 h: aqueous medium, pH 6.8, dose 125 µg/ml
[3] = Metabolic stability of the compound in human liver microsomes at 1 umol/L by HPLC-MS/MS analysis; assay type: ADME, Microsome; conditions: dose 1 µmol/L, read-out: Stability
[4] = Metabolic stability of the compound in rat liver microsomes at 1 umol/L by HPLC-MS/MS analysis; assay type: ADME, Microsome; conditions: dose 1 µmol/L, read-out: Stability
[5] = Metabolic stability of the compound in mouse liver microsomes at 1 umol/L by HPLC-MS/MS analysis; assay type: ADME, Microsome; conditions: dose 1 µmol/L, read-out: Stability
[6] = Stability of the compound in 1:1 acetonitrile/water at 125 ug/ml measured after 24 hrs by LC-UV analysis; assay type: physicochemical; conditions: buffer, at 125 µg/mL

solubility [1] [µM]	solubility [2] [µM]	remaining at 1 µM [3] [%]	remaining at 1 µM [4] [%]	remaining at 1 µM [5] [%]	solubility at 24 h [1] [µg/mL]	solubility at 24 h [2] [µg/mL]	Stability [6]	Compound
> 191	> 178	54	< 23	27	–	–	–	Cc1sc2c(c1C)C(c1ccc(Cl)cc1)=N[C@@H](CC(=O)NCCCCCN1CCC(c3ccc4c(c3)CN(C3CCC(=O)NC3=O)C4=O)CC1)c1nnc(C)n1-2 (stereo partly specified)
–	< 1	> 88	66	83	3 (≈ 3.61 µM)	–	–	Cc1sc2c(c1C)C(c1ccc(Cl)cc1)=N[C@@H](CC(=O)NCCCCCCNc1ccc(Cc3ccc4c(c3)CN(C3CCC(=O)NC3=O)C4=O)cc1)c1nnc(C)n1-2 (stereo partly specified)
–	< 1	> 88	58	76	6 (≈ 7.34 µM)	–	–	Cc1sc2c(c1C)C(c1ccc(Cl)cc1)=N[C@@H](CC(=O)NCCCCCNc1ccc(Cc3ccc4c(c3)CN(C3CCC(=O)NC3=O)C4=O)cc1)c1nnc(C)n1-2 (stereo partly specified)
< 1	< 1	37	64	25	–	–	–	Cc1sc2c(c1C)C(c1ccc(Cl)cc1)=N[C@@H](CC(=O)Nc1ccc(Cc3ccc4c(c3)CN(C3CCC(=O)NC3=O)C4=O)cc1)c1nnc(C)n1-2 (stereo partly specified)
–	–	> 88	48	70	14 (≈ 17.7 µM)	4 (≈ 5.07 µM)	–	Cc1sc2c(c1C)C(c1ccc(Cl)cc1)=N[C@@H](CC(=O)NCCCNc1ccc(Cc3ccc4c(c3)CN(C3CCC(=O)NC3=O)C4=O)cc1)c1nnc(C)n1-2 (stereo partly specified)
> 185	> 175	34	< 23	27	–	–	–	Cc1sc2c(c1C)C(c1ccc(Cl)cc1)=N[C@@H](CC(=O)NCCCN1CCC(c3ccc4c(c3)CN(C3CCC(=O)NC3=O)C4=O)CC1)c1nnc(C)n1-2 (stereo partly specified)
> 190	–	56	33	44	–	161 (≈ 196 µM)	–	Cc1sc2c(c1C)C(c1ccc(Cl)cc1)=N[C@@H](CC(=O)NCCN1CCC3(CCC(c4ccc5c(c4)CN(C4CCC(=O)NC4=O)C5=O)CC3)CC1)c1nnc(C)n1-2 (stereo partly specified)
–	–	86	42	55	3 (≈ 3.87 µM)	1 (≈ 1.29 µM)	–	Cc1sc2c(c1C)C(c1ccc(Cl)cc1)=N[C@@H](CC(=O)NCCNc1ccc(Cc3ccc4c(c3)CN(C3CCC(=O)NC3=O)C4=O)cc1)c1nnc(C)n1-2 (stereo partly specified)
> 188	> 174	41	< 23	25	–	–	Unstable	Cc1sc2c(c1C)C(c1ccc(Cl)cc1)=N[C@@H](CC(=O)NCCN1CC(N3CCC(c4ccc5c(c4)CN(C4CCC(=O)NC4=O)C5=O)CC3)C1)c1nnc(C)n1-2 (stereo partly specified)
> 197	> 182	53	< 23	< 24	–	–	–	Cc1sc2c(c1C)C(c1ccc(Cl)cc1)=N[C@@H](CC(=O)NCCCCCCN1CCC(c3ccc4c(c3)CN(C3CCC(=O)NC3=O)C4=O)CC1)c1nnc(C)n1-2 (stereo partly specified)
> 189	> 175	66	< 23	< 24	–	–	–	Cc1sc2c(c1C)C(c1ccc(Cl)cc1)=N[C@@H](CC(=O)NCCCCN1CCC(c3ccc4c(c3)CN(C3CCC(=O)NC3=O)C4=O)CC1)c1nnc(C)n1-2 (stereo partly specified)
–	< 1	> 88	62	77	4 (≈ 4.98 µM)	–	–	Cc1sc2c(c1C)C(c1ccc(Cl)cc1)=N[C@@H](CC(=O)NCCCCNc1ccc(Cc3ccc4c(c3)CN(C3CCC(=O)NC3=O)C4=O)cc1)c1nnc(C)n1-2 (stereo partly specified)
> 190	–	60	< 23	33	–	101 (≈ 127 µM)	–	Cc1sc2c(c1C)C(c1ccc(Cl)cc1)=N[C@@H](CC(=O)NCCN1CC3(CCC(c4ccc5c(c4)CN(C4CCC(=O)NC4=O)C5=O)CC3)C1)c1nnc(C)n1-2 (stereo partly specified)
> 177	> 162	68	40	25	–	–	–	Cc1sc2c(c1C)C(c1ccc(Cl)cc1)=N[C@@H](CC(=O)NCCN1CCC(c3ccc4c(c3)CN(C3CCC(=O)NC3=O)C4=O)CC1)c1nnc(C)n1-2 (stereo partly specified)

Compound	solubility [1] [µM]	solubility [2] [µM]	remaining at 1 µM [3] [%]	remaining at 1 µM [4] [%]	remaining at 1 µM [5] [%]	solubility at 24 h [1] [µg/mL]	solubility at 24 h [2] [µg/mL]	Stability [6]
Cc1sc2c(c1C)C(c1ccc(Cl)cc1)=N[C@@H](CC(=O)N1CCC(c3ccc4c(c3)CN(C3CCC(=O)NC3=O)C4=O)CC1)c1nnc(C)n1-2 (stereo partly specified)	–	–	67	34	51	36 (≈ 50.7 µM)	26 (≈ 36.6 µM)	–
